# Tested on: Staphylococcus aureus
# Test: Antibacterial activity against Methicillin-resistant Staphylococcus aureus ATCC 33591 persister cells assessed as log reduction in bacterial colonies at 9 uM incubated for 24 hrs in broth solution followed by incubation on agar plate for 48 hrs by spot plating method
# Assay type: functional
# Conditions: time 72 hrs
smiles,measurement,value
CCCCCCCCCCNC(=O)C[N+](C)(C)CCCNC(=O)c1ccc(CN[C@@]2(C)C[C@H](O[C@H]3[C@H](Oc4c5cc6cc4Oc4ccc(cc4Cl)[C@@H](O)[C@@H](NC(=O)[C@@H](CC(C)C)NC)C(=O)N[C@@H](CC(N)=O)C(=O)N[C@H]6C(=O)N[C@H]4C(=O)N[C@H](C(=O)N[C@H](C(=O)O)c6cc(O)cc(O)c6-c6cc4ccc6O)[C@H](O)c4ccc(c(Cl)c4)O5)O[C@H](CO)[C@@H](O)[C@@H]3O)O[C@@H](C)[C@H]2O)cc1,Activity,6 log10CFU/ml

# Reference: ChEMBL document CHEMBL5223082, “Alkyl-Aryl-Vancomycins: Multimodal Glycopeptides with Weak Dependence on the Bacterial Metabolic State” (J Med Chem, 2021)
